Laboratory results: PubChem BioAssay (NCI)
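Exposure lasted 48 hours, with cells grown in 96-well plates and compounds tested at five concentrations. TGI: total growth inhibition.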

Columns and labels:
Test in all cases: NCI tumour cell line growth inhibition, 48 h
A549 NSCLC = test system: A549 NSCLC
BT-549 breast = test system: BT-549 breast
HS 578T breast = test system: HS 578T breast
M14 melanoma = test system: M14 melanoma
MALME-3M melanoma = test system: MALME-3M melanoma
MDA-MB-435 = test system: MDA-MB-435
RPMI-8226 leukemia = test system: RPMI-8226 leukemia
SK-MEL-5 melanoma = test system: SK-MEL-5 melanoma
SK-OV-3 ovarian = test system: SK-OV-3 ovarian
SW-620 colon = test system: SW-620 colon

Row | Compound | TGI (A549 NSCLC) [µM] | TGI (BT-549 breast) [µM] | TGI (HS 578T breast) [µM] | TGI (M14 melanoma) [µM] | TGI (MALME-3M melanoma) [µM] | TGI (MDA-MB-435) [µM] | TGI (RPMI-8226 leukemia) [µM] | TGI (SK-MEL-5 melanoma) [µM] | TGI (SK-OV-3 ovarian) [µM] | TGI (SW-620 colon) [µM]
1 | C=C1C[C@@H](O)[C@@H](Br)C(C)(C)[C@@]12C=CC(=O)CC2 | > 100 | > 100 | > 100 | > 100 | > 100 | > 100 | > 100 | > 100 | > 100 | > 100
2 | CC(=O)C(C(=O)c1ccc(C)cc1)[C@H]1OC(C)(C)O[C@H]1[C@H]1COC(C)(C)O1 (stereo partly drawn) | 22.9 | > 50 | > 50 | 14.4 | 18.4 | 9.55 | > 50 | 12.2 | 18.4 | 10.8
3 | O=c1[nH]nc(-c2ccccc2)n1/N=C/c1ccccc1O | > 100 | > 100 | 96.2 |  | > 100 | > 100 | > 100 | > 100 | 53.9 | > 100
4 | Nc1[nH]c(=O)nc2snnc12 | > 100 | > 100 | > 100 | > 100 | > 100 | > 100 | > 100 | > 100 | > 100 | > 100
5 | O=C1CCCC/C1=C\c1ccc([N+](=O)[O-])cc1 | 95.9 | 59.3 | 70.8 | 40.8 |  |  | 44.3 | > 100 | 30.9 | 
6 | CC1CN=C(Nc2cccc(F)c2)S1 (stereo not drawn) | > 100 | > 100 | > 100 | > 100 | > 100 | > 100 | > 100 | > 100 | > 100 | > 100
7 | FC(F)(F)c1ccc2c(c1)nc1n2C(c2c(Cl)cccc2Cl)SC1 (stereo not drawn) | 38.6 | 55.3 | 59.3 | 36.9 | 42.1 | 41.4 |  |  | 85.9 | 71.3
8 | CCOC(=O)c1sc2c(c1OC(=O)c1cc(OC)c(OC)c(OC)c1)c(=O)n(-c1ccccc1)c(=S)n2-c1ccccc1 | > 100 |  | > 100 | > 100 | > 100 | > 100 | > 100 | > 100 | > 100 | > 100
9 | O=C(N=Nc1ccc(Cl)cc1Cl)NNc1ccc(Cl)cc1Cl | 46.7 | 39.7 |  |  | 36.6 | 51.3 | 61.9 | 29.2 |  | 45.8
10 | COc1cc(/C=N/N=C(\N)NO)cc(OC)c1OC | > 100 |  | > 100 | > 100 | 82.7 | > 100 | > 100 | 44.7 | > 100 | > 100
11 | O=C1/C(=C\c2ccc(Br)cc2)CCCc2ccccc21 | > 100 | 55.9 | 49 | > 100 |  | 61.5 | 48.8 |  | > 100 | 43
12 | C[C@@H](C[C@H]1OC(C)(C)O[C@@H]1C(C)(C)O)[C@H]1CC=C2[C@]3(C)[C@H](O)C[C@H]4C(C)(C)[C@H](O)CC[C@]4(C)[C@H]3CC[C@]21C | 15.2 | 22.4 | 16.6 | 17.6 | 26.3 | 17.7 | 12.8 | 18.3 | 20.6 | 19.4
13 | N=c1oc2ccccc2cc1-c1nc2ccccc2[nH]1 | > 100 | 87.4 | > 100 | > 100 | 72 | 48.2 | > 100 | > 100 | > 100 | > 100
14 | COc1ccc(-c2c(-c3ccc(OC)cc3)n3c(=O)n(C)c(=O)n23)cc1 | > 100 |  |  | > 100 | > 100 | > 100 | > 100 | > 100 | > 100 | > 100
15 | N#Cc1c2ccc([N+](=O)[O-])cc2c(=O)n2c1[nH]c1ccc(C(F)(F)F)cc12 | > 100 | > 100 | > 100 | > 100 | > 100 | > 100 | 13.6 | > 100 | > 100 | > 100
16 | COc1ccc(C2=[S+]C(c3ccccc3)(c3ccccc3)c3ccccc32)cc1 | > 100 | 53.9 | 68 | 31.4 | 46.1 | 41.1 | 53.9 | 31.5 | > 100 | > 100
17 | COc1ccc2cc(CNCCCCCCCCNCc3ccc4cc(OC)ccc4c3)ccc2c1 | > 100 | 9.97 | > 20.8 |  |  | 9.83 | 12.2 | > 100 |  | 4.38
18 | CC[C@@H](CCCCC1CC[C@H]2CC(=O)C[C@@H]12)OC (stereo partly drawn) | > 100 |  | > 100 | > 100 | > 100 | > 100 | > 100 | > 100 | > 100 | > 100
19 | C1CCCCC2(CCCCCCCCC3(CCC1)SCCS3)SCCS2 | > 100 |  | > 100 | > 100 | > 100 | > 100 |  | > 100 | > 100 | > 100
20 | CCCCc1ccc(-n2sc3ncc(-c4ccccc4)cc3c2=O)cc1 | > 100 | > 100 |  | > 100 |  | > 100 | > 100 | > 100 | > 100 | > 100
21 | COc1ccc2oc(S(=O)(=O)N3CC(CCl)c4ccc(N)cc43)cc2c1 (stereo not drawn) | > 100 | > 55.8 | > 100 | > 100 | > 100 |  | > 100 | 4.95 | > 100 | > 100
22 | Nc1ccccc1C#CC(=O)c1cccc(C(F)(F)F)c1 | 33.6 |  | 6.47 | 5.1 | 22.1 | 6.65 | 5.4 | 6.17 | 28.6 | 5
23 | CO/N=C\c1ccc2c(c1)Sc1ccccc1O2 | > 100 |  | 97.3 | > 100 | > 100 | > 100 | > 100 |  | > 100 | > 100
